Assay results taken from patent US11702392B2, “Pyrimidinone derivatives as SHP2 antagonists” (MERCK PATENT GMBH, priority 2019, dated 2023).
“Also recorded” adds a separate entry of the source.

Experiments:
[1] = target: Full length SHP2 protein (Recombinant Human SHP-2) (Homo sapiens (Human), UniProt Q06124); assay: SHP2 biochemical assay (DiFMUP substrate, activating peptide IRS1_2pY); details: activating peptide IRS1_2pY 140 nM, 60 min
Description: The inhibition of SHP2 by compounds of the invention was monitored using the surrogate substrate DiFMUP after protein activation by a peptide bearing two appropriately spaced phosphotyrosine. […] The generation of the DiFMU product by activated SHP2 was monitored through Fluorescence measurement with a PerkinElmer Envision reader. The inhibitor dose response curves were analyzed with Genedata Screener.

[2] = Pharmacokinetics in female CD1 mice (oral / intravenous); assay type: in vivo; details: mouse; for AUC ng/ml*h (normalized to 1 mp/k) / Cmax ng/mL (normalized to 1 mg/k): normalized to 1 mg/kg; for Fz: oral
Description: Female CD1 mice (N=3) received a single oral (gavage) or a single intravenous (bolus) injection of compound. […] Consecutive blood samples were taken sub-lingually under isofluorane inhalation from animals after 0.083 (IV), 0.25, 0.5, 1, 2, 4, 6 and 24 h and were further processed to obtain plasma. Samples were protein precipitated and analysed by LC/MS/MS.

[3] = target: auto-activated mutant protein SHP2 E76K (Homo sapiens (Human), UniProt Q06124, E76K); assay: SHP2 E76K active mutant biochemical assay with and without activating peptide
Description: The inhibition of SHP2 by compounds of the invention was monitored using the surrogate substrate DiFMUP after protein activation by a peptide bearing two appropriately spaced phosphotyrosine. Full length SHP2 protein (Recombinant HumanSHP-2, E. coli derived Ser2Arg593, N-terminal 6His tag from R&D systems; 0.0.24 nM) was incubated with activating peptide, IRSI_2pY (New England Peptide, 140 nM) and DiFMUP (molecular probes, 80 uM) at RT in buffer (HEPES pH 7.2 60 mM, DDT 5 mM, KCl 75 mM, NaCl 75 mM, EDTA 1 mM, Tween 20 0.05%) in presence of compound (10 concentrations range, top concentration 50 μM) for 60 min. The generation of the DiFMU product by activated SHP2 was monitored through Fluorescence measurement with a PerkinElmer Envision reader. The inhibitor dose response curves were analyzed with Genedata Screener.

EBC-1 xenografts = assay: EBC-1 xenograft (cMET amplified non-small cell lung cancer); assay type: in vivo; details: 100 mg/kg QD oral gavage, CD-1 nude mice
Excerpt: CD-1 nude mice were inoculated with 5 million EBC-1 cells.

KYSE-520 xenografts = assay: Kyse-520 xenograft (EGFR amplified esophageal cancer); details: H2D Rag2 mice
Excerpt: H2D Rag2 mice were inoculated with 5 million KYSE-520 cells mixed with matrigel.
In vivo efficacy of compound 74a in an EGFR amplified setting was investigated in Kyse-520 xenografts. H2D Rag2 mice were inoculated with 5 million KYSE-520 cells mixed with matrigel.

U87-MG xenografts = assay: U87-MG xenograft (PTEN LOF glioblastoma); assay type: in vivo, mouse; details: 50 mg/kg QD oral gavage, CD-1 nude mice
Excerpt: CD-1 nude mice were inoculated with 10 million U87-MG cells.

MiaPaCa-2 xenografts = assay type: in vivo, mouse; details: 50 or 100 mg/kg QD oral gavage, H2D Rag2 mice
Excerpt: H2D Rag2 mice were inoculated with 3 million MiaPaCa-2 cells.

HPAF-2 xenografts = details: 50 mg/kg compound 23B or 60 mg/kg RMC-4550 QD oral gavage, CB17.SCID mice
[4] = target: Kv11.1 (hERG) ion channel (Homo sapiens (Human), UniProt Q12809); assay: hERG patch clamp in Kv11.1 (hERG) transfected HEK293 cells; assay type: cell-based
Description: Inhibition of the ion channel hErg (or Kv11.1) current causes QT interval prolongation resulting in potentially fatal ventricular tachyarrhythmia called Torsade de Pointes.
hERG ion channel activity was assessed using a patch clamp technique in stable Kv11.1 (hERG) transfected human embryonic kidney cell line (HEK293). Whole cell recordings were carried out with an automated patch clamp device Patchliner™ from Nanion Technologies, Munich following manufacturer recommendation. Different concentrations of the test compound or reference, quinidine, were applied to whole cells suspension and current was measured using a pulse pattern with fixed amplitudes.

pERK1/2 in KYSE520 cells = assay: p-Erk cellular assay in KYSE520 (Mesoscale); assay type: cell-based; details: Homo sapiens, KYSE-520, 2 h, read-out: pERK1/2 in Cell KYSE520 IC50
Description: The effect of SHP2 inhibitors on pERK level was assessed using phospho-specific antibody using Mesoscale quantification platform. For measuring change in pERK levels using mesoscale, 30,000 cells of KYSE520 cells were plated in 96-well tissue culture treated plate in 175 μl volume of media. After an overnight incubation at 37° C., various SHP2 inhibitors were added in different concentration to each well maintaining duplicate wells across plates and incubated with compounds for 2 h at 37° C. followed by a wash with ice cold PBS buffer. The cells were then lysed in lysis buffer and processed and analyzed for p-ERK/ERK as per manufacturer's instructions (Mesoscale discovery, cat No. […]-3).

[5] = test system: MCP-1 production in U937 cells; assay: Cytokine release assay: MCP-1 production in U937 cells stimulated with IL-6; assay type: cell-based
Description: Selected compounds were tested in a cytokine release assay in monocytic cells (U937) to test their anti-inflammatory properties. Cells were plated in a 96-well cell culture plate using serum-free media. The cells were treated with indicated concentrations of SHP-2 inhibitors for 30 minutes followed by overnight stimulation with recombinant IL-6 (50 ng/mL). The MCP-1 production was measured in the culture supernatant using a MCP-1 AlphaLISA kit (Perkin Elmer).

[6] = 10, 30 or 100 mg/kg QD oral gavage
[7] = 0.8, 2.5 or 8 mg/kg QD oral gavage

Sequence of Full length SHP2 protein (Recombinant Human SHP-2) (Q06124 2-593): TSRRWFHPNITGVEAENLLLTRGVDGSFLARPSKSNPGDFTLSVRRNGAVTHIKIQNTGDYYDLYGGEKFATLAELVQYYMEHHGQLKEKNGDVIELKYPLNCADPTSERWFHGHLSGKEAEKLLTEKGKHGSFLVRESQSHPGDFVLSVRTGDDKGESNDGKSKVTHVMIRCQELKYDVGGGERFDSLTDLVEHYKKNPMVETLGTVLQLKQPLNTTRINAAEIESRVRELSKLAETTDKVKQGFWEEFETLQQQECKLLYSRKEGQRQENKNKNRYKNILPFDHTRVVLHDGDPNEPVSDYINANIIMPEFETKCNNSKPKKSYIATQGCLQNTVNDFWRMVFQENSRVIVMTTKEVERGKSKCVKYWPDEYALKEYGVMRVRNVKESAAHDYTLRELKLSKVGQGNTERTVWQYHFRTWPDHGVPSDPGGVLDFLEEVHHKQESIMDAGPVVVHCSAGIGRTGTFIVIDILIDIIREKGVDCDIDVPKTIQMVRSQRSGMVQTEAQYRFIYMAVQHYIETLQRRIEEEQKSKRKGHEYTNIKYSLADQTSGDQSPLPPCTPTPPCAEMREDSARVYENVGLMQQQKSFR
Sequence of Kv11.1 (hERG) ion channel (Q12809 whole entry): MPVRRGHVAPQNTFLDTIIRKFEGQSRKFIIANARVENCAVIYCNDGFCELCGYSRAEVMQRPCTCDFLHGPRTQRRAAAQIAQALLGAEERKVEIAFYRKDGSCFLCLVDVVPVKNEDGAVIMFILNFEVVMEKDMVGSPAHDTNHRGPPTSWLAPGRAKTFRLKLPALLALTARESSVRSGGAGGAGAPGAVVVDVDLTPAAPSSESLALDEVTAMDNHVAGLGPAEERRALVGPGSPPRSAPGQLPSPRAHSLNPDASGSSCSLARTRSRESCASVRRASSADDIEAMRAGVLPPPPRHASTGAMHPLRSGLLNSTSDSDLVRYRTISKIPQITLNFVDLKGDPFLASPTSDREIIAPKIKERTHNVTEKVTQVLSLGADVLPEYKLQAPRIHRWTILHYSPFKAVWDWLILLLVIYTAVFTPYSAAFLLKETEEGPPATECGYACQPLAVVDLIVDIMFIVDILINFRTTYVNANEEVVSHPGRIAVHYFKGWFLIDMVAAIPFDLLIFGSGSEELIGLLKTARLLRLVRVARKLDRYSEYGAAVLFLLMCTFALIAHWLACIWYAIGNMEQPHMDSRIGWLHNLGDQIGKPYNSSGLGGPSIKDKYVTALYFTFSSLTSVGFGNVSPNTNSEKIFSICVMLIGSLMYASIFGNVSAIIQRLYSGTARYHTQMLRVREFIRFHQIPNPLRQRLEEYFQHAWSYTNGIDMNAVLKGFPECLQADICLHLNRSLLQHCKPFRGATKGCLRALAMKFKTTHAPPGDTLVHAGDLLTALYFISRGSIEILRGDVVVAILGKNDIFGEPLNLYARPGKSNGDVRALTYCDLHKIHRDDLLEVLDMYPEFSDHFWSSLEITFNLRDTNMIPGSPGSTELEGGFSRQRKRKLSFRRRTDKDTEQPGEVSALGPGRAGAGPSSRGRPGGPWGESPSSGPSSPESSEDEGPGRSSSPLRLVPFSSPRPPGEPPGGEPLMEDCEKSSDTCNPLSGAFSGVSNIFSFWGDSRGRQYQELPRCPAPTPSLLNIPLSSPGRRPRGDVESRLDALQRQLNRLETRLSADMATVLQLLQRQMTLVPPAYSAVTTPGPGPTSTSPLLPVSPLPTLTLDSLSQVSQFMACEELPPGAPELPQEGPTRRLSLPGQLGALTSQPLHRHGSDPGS
Sequence of auto-activated mutant protein SHP2 E76K (Q06124 whole entry E76K): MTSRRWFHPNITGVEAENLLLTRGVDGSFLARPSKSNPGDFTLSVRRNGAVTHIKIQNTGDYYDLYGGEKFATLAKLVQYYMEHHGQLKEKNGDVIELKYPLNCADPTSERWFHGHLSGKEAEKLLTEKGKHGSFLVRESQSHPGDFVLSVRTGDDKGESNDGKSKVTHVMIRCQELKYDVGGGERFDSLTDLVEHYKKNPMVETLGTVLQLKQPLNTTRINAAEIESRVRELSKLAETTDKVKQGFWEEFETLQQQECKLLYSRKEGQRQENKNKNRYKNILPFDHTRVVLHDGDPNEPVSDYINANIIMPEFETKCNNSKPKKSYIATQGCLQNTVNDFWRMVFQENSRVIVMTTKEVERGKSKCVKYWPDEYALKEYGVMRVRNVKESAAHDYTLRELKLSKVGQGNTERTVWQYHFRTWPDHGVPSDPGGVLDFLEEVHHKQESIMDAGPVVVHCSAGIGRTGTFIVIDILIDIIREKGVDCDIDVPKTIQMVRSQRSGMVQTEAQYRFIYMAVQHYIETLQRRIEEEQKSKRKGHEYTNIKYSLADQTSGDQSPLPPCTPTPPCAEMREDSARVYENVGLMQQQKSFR

Compound | IC50 [1] | AUC ng/ml*h (normalized to 1 mp/k) [2] | Cmax ng/mL (normalized to 1 mg/k) [2] | Fz [2] | further results
C[C@@H]1OCC2(CCN(c3cc(=O)n(-c4cccc(Cl)c4Cl)c(C(F)F)n3)CC2)[C@@H]1N (atropisomer, axis not shown; (M)) [Compound 20b, (3M)-6-[(3S,4S)-4-amino-3-methyl-2-oxa-8-azaspiro[4.5]decan-8-yl]-3-(2,3-dichlorophenyl)-2-(difluoromethyl)-3,4-dihydropyrimidin-4-one] | 1100 nM |  |  |  | 
Cc1c(N2CCC3(CC2)Cc2ccccc2[C@@H]3N)nc(C)n(-c2cccc(Cl)c2Cl)c1=O (atropisomer, axis not shown; (M)) [Compound 74c, (3M)-6-[(1R)-1-amino-1,3-dihydrospiro[indene-2,4′-piperidin]-1′-yl]-3-(2,3-dichlorophenyl)-2,5-dimethyl-3,4-dihydropyrimidin-4-one] | 250 nM |  |  |  | 
Cc1c(N2CCC3(CCC[C@@H]3N)CC2)nc(N)n(-c2cccc(Cl)c2Cl)c1=O (atropisomer, axis not shown; (M)) [Compound 78c, (3M)-2-amino-6-[(1S)-1-amino-8-azaspiro[4.5]decan-8-yl]-3-(2,3-dichlorophenyl)-5-methyl-3,4-dihydropyrimidin-4-one] | 2100 nM |  |  |  | 
Cc1nc(N2CCC3(CC2)CO[C@@H](C)[C@H]3N)cc(=O)n1-c1cccc(Cl)c1Cl (single isomer, unassigned) [Compound 3b] |  | 1765 ng·h/mL | 223 ng/mL | 85% | 
Cc1c(N2CCC3(CC2)CO[C@@H](C)[C@H]3N)nc(C)n(-c2cccc(Cl)c2Cl)c1=O (single isomer, unassigned) [Compound 23b] |  | 1222 ng·h/mL | 177 ng/mL | 100% | IC50 [3]: 12000 nM; tolerability (EBC-1 xenografts): well tolerated; tumor growth (EBC-1 xenografts): reduces tumor growth; also recorded: Significant tumor growth inhibition; tolerability (KYSE-520 xenografts; [6]): well tolerated; tumor growth (KYSE-520 xenografts; [6]): reduce growth of the tumor a significant amount; also recorded: dose-dependent significant tumor growth inhibition; tumor growth (U87-MG xenografts): reduces tumor size as compared to baseline; also recorded: Tumor regression; tolerability (MiaPaCa-2 xenografts): well tolerated; tolerability (HPAF-2 xenografts): well tolerated; tumor growth (HPAF-2 xenografts): Significant tumor inhibition
Cc1c(N2CCC3(CC2)Cc2ncccc2[C@H]3N)nc(C)n(-c2cccc(Cl)c2Cl)c1=O (single isomer, unassigned) [Compound 66b] |  | 2387 ng·h/mL | 367 ng/mL | 100% | Split between hErg and cell activity Ki (patch Clamp)/IC50 (KYSE) [4]: 580
Cc1c(N2CCC3(CCC[C@H]3N)CC2)nc(C)n(-c2cccc(Cl)c2Cl)c1=O (single isomer, unassigned) [Compound 67a] | 19000 nM |  |  |  | 
Cc1c(N2CCC3(CCC[C@H]3N)CC2)nc(C)n(-c2cccc(Cl)c2Cl)c1=O (single isomer, unassigned) [Compound 67b] |  |  |  |  | IC50 (pERK1/2 in KYSE520 cells): 198 nM
Cc1c(N2CCC3(CC2)Oc2cnccc2C3N)nc(C)n(-c2cccc(Cl)c2Cl)c1=O (single isomer, unassigned) [Compound 80c] |  |  |  |  | IC50 (pERK1/2 in KYSE520 cells): 420 nM
Cc1c(N2CCC3(CC2)Oc2ccccc2[C@H]3N)nc(C)n(-c2cccc(Cl)c2Cl)c1=O (single isomer, unassigned) [Compound 81b] |  | 3270 ng·h/mL | 450 ng/mL | 48% | 
Cc1c(N2CCC3(CC2)Cc2ccccc2[C@H]3N)nc(C)n(-c2cccc(Cl)c2Cl)c1=O [Compound 74a, (3M)-6-[(1S)-1-amino-1,3-dihydrospiro[indene-2,4′-piperidin]-1′-yl]-3-(2,3-dichlorophenyl)-2,5-dimethyl-3,4-dihydropyrimidin-4-one] | 1 nM | 2108 ng·h/mL | 129 ng/mL | 100% | tolerability (KYSE-520 xenografts; [7]): well tolerated; tumor growth (KYSE-520 xenografts; [7]): reduce growth of the tumor a significant amount; also recorded: dose-dependent significant tumor growth inhibition
Cc1c(N2CCC3(CC2)c2ncccc2C[C@H]3N)nc(C)n(-c2cccc(Cl)c2Cl)c1=O [Compound 75, (3M)-6-[(6R)-6-amino-5,6-dihydrospiro[cyclopenta[b]pyridine-7,4′-piperidin]-1′-yl]-3-(2,3-dichlorophenyl)-2,5-dimethyl-3,4-dihydropyrimidin-4-one] | 120 nM |  |  |  | IC50 (pERK1/2 in KYSE520 cells): 824 nM
Cc1c(N2CCC3(CC2)C[C@@H](C)C[C@H]3N)nc(C)n(-c2cccc(Cl)c2Cl)c1=O [Compound 77, (3M)-6-[(1R,3R)-1-amino-3-methyl-8-azaspiro[4.5]decan-8-yl]-3-(2,3-dichlorophenyl)-2,5-dimethyl-3,4-dihydropyrimidin-4-one] |  |  |  |  | MCP-1 production (FIG. 1) [5]: suppressed MCP-1 production
Cc1c(N2C[C@H]3CC(CO)C[C@@]3(CN)C2)nc(C)n(-c2cccc(Cl)c2Cl)c1=O (stereo partly drawn) [Compound 101, (3M)-6-[(3aR,6aS)-3a-(aminomethyl)-5-(hydroxymethyl)-octahydrocyclopenta[c]pyrrol-2-yl]-3-(2,3-dichlorophenyl)-2,5-dimethyl-3,4-dihydropyrimidin-4-one] | 230 nM |  |  |  | 
Cc1nc(N2CCC3(CC2)CO[C@@H](C)[C@H]3N)c(CO)nc1-c1cccc(Cl)c1Cl [RMC-4550, reference compound] |  | 735 ng·h/mL | 85 ng/mL | 86% | tumor growth (HPAF-2 xenografts): Significant tumor inhibition
